Measured values reported in PMC4556614 (PLoS ONE, 2015).

Tests used:
[1] = target: T1, OCT2 (Homo sapiens, UniProt O15244); experiment: Inhibition of OCT2-mediated [14C]metformin uptake in HEK-OCT2 cells; conditions: human; for % Inhibition of OCT2-dependent MF uptake at 20 µM (mean ± SEM) / % Inhibition of OCT2-dependent MF uptake at 200 µM (mean ± SEM): pH 7.3
Method: (§1) For the transport assays HEK cell lines stably transfected with human OCT2 (HEK-OCT2) or the vector only (HEK-VC) were used. The HEK-OCT2 cell line was established and characterized previously. HEK-OCT2 and HEK-VC cells were seeded in poly-D-lysine (Sigma Aldrich, Taufkirchen, Germany) coated 48-well-plates at a density of 1.2 x 10^5 cells/well. […] Uptake was stopped by washing the cells three times with ice-cold uptake buffer. Afterwards, cells were lysed with 5 mM Tris buffer (pH 7.3) containing 0.1% Triton X-100. The intracellular accumulation of radioactivity was determined by liquid scintillation counting (PerkinElmer, Rodgau-Jügesheim, Germany) and protein concentration of each lysate was measured with bicinchonic acid assay (BCA Protein Assay Kit, Thermo Fisher Scientific, Waltham, MA, USA). We performed two to eight experiments each on at least two separate days, i.e., n = 4–16.
Experimental half-maximal inhibitory concentrations (IC50 values) were measured as the substrate uptake in the presence of increasing concentrations of test drugs. These experiments were performed as described above (three experiments each on two separate days, i.e., n = 6). IC50 values were calculated with GraphPad Prism 5.0 (GraphPad Software, San Diego, CA, USA). IC50 was estimated by a sigmoidal inhibition model and was fit to the equation V = V 0 / (1 + (I / IC50 ) ^n ) by nonlinear regression. V is the net uptake in the presence of the inhibitor, V 0 is the net uptake in the absence of the inhibitor, I is the concentration of the inhibitor and n is the slope.

[2] = target: T1, OCT2; experiment: Inhibition of OCT2-mediated [3H]MPP+ uptake in HEK-OCT2 cells
Method: as §1

[3] = human, pH 7.3, probe [3H]MPP+, 50 µM
[4] = test drug 20 µM, MPP+ 50 μM, 3 min, net uptake HEK-OCT2 minus HEK-VC
[5] = test drug 200 µM, MPP+ 50 μM, 3 min, net uptake HEK-OCT2 minus HEK-VC

T1 sequence (O15244 whole entry): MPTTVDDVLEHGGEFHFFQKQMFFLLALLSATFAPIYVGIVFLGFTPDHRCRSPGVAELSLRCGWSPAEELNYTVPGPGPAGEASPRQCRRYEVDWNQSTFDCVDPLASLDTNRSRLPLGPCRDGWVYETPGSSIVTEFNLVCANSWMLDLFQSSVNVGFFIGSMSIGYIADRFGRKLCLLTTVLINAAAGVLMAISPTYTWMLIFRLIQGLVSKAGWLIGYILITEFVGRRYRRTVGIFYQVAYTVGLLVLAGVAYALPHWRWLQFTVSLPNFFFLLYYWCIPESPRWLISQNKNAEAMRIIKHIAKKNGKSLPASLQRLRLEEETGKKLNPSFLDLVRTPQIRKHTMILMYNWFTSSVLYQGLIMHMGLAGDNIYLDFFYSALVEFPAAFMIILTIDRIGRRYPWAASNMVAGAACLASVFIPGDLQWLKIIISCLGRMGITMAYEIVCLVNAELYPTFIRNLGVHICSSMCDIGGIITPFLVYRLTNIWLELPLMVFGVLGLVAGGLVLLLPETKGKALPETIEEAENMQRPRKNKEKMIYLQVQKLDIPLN

Compound | inhibition at 3 min, 20 µM ([1]; pH 7.3, probe [14C]metformin, 1000 µM, % Inhibition of OCT2-dependent MF uptake at 20 µM (mean ± SEM), test drug 20 µM, metformin 1000 μM, 3 min, net uptake HEK-OCT2 minus HEK-VC) [%] | inhibition at 3 min, 200 µM ([1]; pH 7.3, probe [14C]metformin, 1000 µM, % Inhibition of OCT2-dependent MF uptake at 200 µM (mean ± SEM), test drug 200 µM, metformin 1000 μM, 3 min, net uptake HEK-OCT2 minus HEK-VC) [%] | inhibition at 3 min, 20 µM [2, 3] [%] | inhibition at 3 min, 200 µM [2, 3] [%] | % Inhibition of OCT2-dependent MF uptake at 20 µM (mean ± SEM) [1] | % Inhibition of OCT2-dependent MF uptake at 200 µM (mean ± SEM) [1] | % Inhibition of OCT2-dependent MPP+ uptake at 20 µM (mean ± SEM) [2, 4] [%] | % Inhibition of OCT2-dependent MPP+ uptake at 200 µM (mean ± SEM) [2, 5] [%] | % Inhibition of OCT2-dependent MPP+ uptake at 20 µM (mean ± SEM) ([2]; human, pH 7.3) | % Inhibition of OCT2-dependent MPP+ uptake at 200 µM (mean ± SEM) ([2]; human, pH 7.3)
CCOc1nc2cccc(C(=O)O)c2n1Cc1ccc(-c2ccccc2-c2nnn[nH]2)cc1 [Candesartan] | 48 ± 3.7 | 69.7 ± 2.7 | 0.9 ± 0.1 | -2.4 ± 4 | – | – | – | – | – | –
C[C@H](CS)C(=O)N1CCC[C@H]1C(=O)O [Captopril] | – | – | – | – | -21.6 ± 19.5% | -59.0 ± 0.9% | 3.8 ± 5.7 | 10.2 ± 6.8 | – | –
NC(=O)N1c2ccccc2C=Cc2ccccc21 [Carbamazepine] | – | – | – | – | 0.2 ± 3.8% | 83.8 ± 1.2% | -51.4 ± 9.2 | -2.1 ± 4.4 | – | –
COc1ccccc1OCCNCC(O)COc1cccc2[nH]c3ccccc3c12 (centres unmarked) [Carvedilol] | – | – | – | – | 84.3 ± 5.2% | 98.6 ± 0.5% | 32.2 ± 3.7 | 88.5 ± 1.5 | – | –
CO/N=C(\C(=O)N[C@@H]1C(=O)N2C(C(=O)O)=C(COC(N)=O)CS[C@H]12)c1ccco1 [Cefuroxime] | – | – | – | – | 29.9 ± 9.7% | 50.3 ± 11.6% | -10.5 ± 7.0 | -30.8 ± 12.9 | – | –
CN(C)CC/C=C1/c2ccccc2Sc2ccc(Cl)cc21 [Chlorprothixene] | – | – | – | – | 66.8 ± 7.9% | 98.4 ± 0.9% | 29.9 ± 7.5 | 91.7 ± 2.2 | – | –
C=C1CC[C@H](O)C/C1=C/C=C1\CCC[C@]2(C)[C@@H]([C@H](C)CCCC(C)C)CC[C@@H]12 [Cholecalciferol] | – | – | – | – | 2.8 ± 15.7 | 17.1 ± 5.0 | 6.8 ± 5.1 | 10.4 ± 6.1 | – | –
CN(C)CCCC1(c2ccc(F)cc2)OCc2cc(C#N)ccc21 (centres unmarked) [Citalopram] | – | – | – | – | 66.6 ± 7.9 | 78.9 ± 8.4 | 40.0 ± 9.9 | 75.2 ± 9.7 | – | –
Cc1ncsc1CCCl [Clomethiazole] | – | – | – | – | -9.2 ± 6.8 | 28.7 ± 3.9 | -6.7 ± 9.2 | -147.3 ± 23.7 | – | –
COC(=O)[C@H](c1ccccc1Cl)N1CCc2sccc2C1 [Clopidogrel] | – | – | – | – | 70.0 ± 2.0 | 92.8 ± 5.4 | – | – | 12.5 ± 0.8 | 41.5 ± 4.0
CN1CCN(C2=Nc3cc(Cl)ccc3Nc3ccccc32)CC1 [Clozapine] | – | – | – | – | 71.4 ± 1.6 | 98.7 ± 0.7 | 43.4 ± 4.7 | 84.1 ± 2.5 | – | –
O=C(O)Cc1ccccc1Nc1c(Cl)cccc1Cl [Diclofenac] | – | – | – | – | 14.3 ± 8.8 | 59.1 ± 6.5 | 8.8 ± 8.9 | 24.0 ± 4.0 | – | –
C[C@H]1O[C@@H](O[C@H]2[C@@H](O)C[C@H](O[C@H]3[C@@H](O)C[C@H](O[C@H]4CC[C@@]5(C)[C@H](CC[C@@H]6[C@@H]5CC[C@]5(C)[C@@H](C7=CC(=O)OC7)CC[C@]65O)C4)O[C@@H]3C)O[C@@H]2C)C[C@H](O)[C@@H]1O [Digitoxin] | – | – | – | – | 28.7 ± 7.9 | 32.8 ± 2.9 | -32.6 ± 3.8 | -32.4 ± 8.5 | – | –
COc1cc2nc(N3CCN(C(=O)C4COc5ccccc5O4)CC3)nc(N)c2cc1OC (centres unmarked) [Doxazosin] | – | – | – | – | 48.0 ± 5.5 | 92.1 ± 1.0 | 26.7 ± 10.3 | 45.8 ± 14.0 | – | –
